Values quoted from earlier work as cited in patent US20190298660A1, “PHOSPHATE-CROSSLINKED STARCH NANOPARTICLES AND USE FOR DRUG DELIVERY” (GreenMark Biomedical Inc., priority 2018, published 2019).

pKa: 9.53
Compound: COc1cccc2c1C(=O)c1c(O)c3c(c(O)c1C2=O)C[C@@](O)(C(=O)CO)C[C@@H]3O[C@H]1C[C@H](N)[C@H](O)[C@H](C)O1 [doxorubicin]
